# According to article PMC11091072, “Targeting bacterial nickel transport with aspergillomarasmine A suppresses virulence-associated Ni-dependent enzymes” (Nature Communications, 2024):
# “And” between values parts separate entries of the source, which are not always exact repeats. Equal entries are not always repeated. Where two headings read alike, the source gives them in different places.
# How the values were obtained:
# HEK293 cells = experiment: HEK293 cytotoxicity assay (Cell Titer Glo 2.0)
# [1] = tested on: cellular Ni and Zn content of K. pneumoniae; experiment: Cellular metal analysis by ICP-MS (60Ni, 66Zn); type: cell-based, Klebsiella pneumoniae
# Protocol: The cellular Zn^2+ and Ni^2+ content of K. pneumoniae was carried out according to the method described by Maunders et al.[66] with some modifications. An overnight culture of K. pneumoniae was diluted 1/200 in LB medium (5 mL) and was either untreated or treated with 0.2 mM AMA or Zn-AMA. The cells were grown for 16 h at 37 °C, harvested by centrifugation, and washed twice with PBS containing 5 mM EDTA and twice with ultra-pure water. The cell pellet was subsequently digested in 0.25 mL 65% HNO3 at 80 °C for 30 minutes in borosilicate glass tubes using a water bath. The samples were diluted to 2% HNO3 and filtered through a 0.45 μm syringe filter. ^60Ni and ^66Zn were quantified using a Thermo iCAP Q ICP-MS.
# [2] = tested on: S. aureus urease activity (whole cell); type: cell-based, Staphylococcus aureus; conditions: artificial urine, 24 h; for Staphylococcus aureus urease-dependent pH change (pH): 37 °C
# urease = target: T1, urease (Klebsiella pneumoniae subsp. pneumoniae, UniProt A6TE40+A6TE41+A6TE42); experiment: Urease activity in cell-free extracts (NH3 release, indophenol-hypochlorite); type: biochemical
# T1 construct: endogenous in cells; host or cells: Klebsiella pneumoniae (ATCC 33495), sonicated and cleared lysate
# T1 sequence (A6TE41 whole entry): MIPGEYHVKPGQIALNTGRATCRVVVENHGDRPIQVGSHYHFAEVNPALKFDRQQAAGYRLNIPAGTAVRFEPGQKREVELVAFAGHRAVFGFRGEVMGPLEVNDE
# T1 sequence (A6TE40 whole entry): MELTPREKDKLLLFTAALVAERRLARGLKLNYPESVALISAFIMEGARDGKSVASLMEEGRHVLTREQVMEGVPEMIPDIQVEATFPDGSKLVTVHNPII
# T1 sequence (A6TE42 whole entry): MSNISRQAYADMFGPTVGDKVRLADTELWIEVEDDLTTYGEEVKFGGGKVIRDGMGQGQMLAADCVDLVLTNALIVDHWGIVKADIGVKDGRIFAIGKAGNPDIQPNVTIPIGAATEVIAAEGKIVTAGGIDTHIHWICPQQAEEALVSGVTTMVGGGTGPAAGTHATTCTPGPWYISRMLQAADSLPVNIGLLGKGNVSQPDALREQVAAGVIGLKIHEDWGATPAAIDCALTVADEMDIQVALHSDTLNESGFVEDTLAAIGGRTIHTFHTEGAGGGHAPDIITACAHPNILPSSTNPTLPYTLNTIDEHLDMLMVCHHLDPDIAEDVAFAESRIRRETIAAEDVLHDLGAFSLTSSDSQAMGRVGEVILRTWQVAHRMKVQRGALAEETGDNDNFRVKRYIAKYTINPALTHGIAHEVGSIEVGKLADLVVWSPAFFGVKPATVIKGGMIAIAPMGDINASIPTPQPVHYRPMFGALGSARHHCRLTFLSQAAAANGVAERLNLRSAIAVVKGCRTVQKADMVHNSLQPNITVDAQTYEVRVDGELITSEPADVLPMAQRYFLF
# Protocol: The cells were subsequently lysed by sonication, and cell debris was removed with centrifugation (20,000 × g, 10 min). […] Liberated NH3 was quantified using the indophenol-hypocholorite reaction as previously described. The total amount of protein was quantified by Bradford assay using bovine serum albumin as standard. Each assay was performed in duplicate wells.
# FIG S7 Evaluation of Zn-AMA as a direct inhibitor of urease. A) Checkerboard analysis of Zn-AMA and AHA on urease activity of K. […]
# Dose- […]
# response curves of fluorofamide, Zn-AMA, and AMA inhibiting the urease-catalyzed release of NH3 quantified with indophenol hypochlorite. The rates of NH3 production were measured over 20 min and were normalized to total protein concentration. Experiments were performed in duplicate. Individual replicates are shown as colored circles.
# [3] = tested on: K. pneumoniae urease activity (whole cell); experiment: microbe, parasite or virus in culture; type: cell-based, Klebsiella pneumoniae ATCC 33495; conditions: artificial urine, 24 h; for K. pneumoniae urease-dependent pH change (pH): 37 °C
# K. pneumoniae [4] = type: cell-based, Klebsiella pneumoniae; conditions: for Growth curve (culture density): 50 μM
# S. aureus = type: cell-based, Staphylococcus aureus; conditions: 200 μM, 24 h
# K. pneumoniae [5] = type: cell-based, Klebsiella pneumoniae; conditions: 200 μM, 24 h exposure
# [6] = tested on: [NiFe]-hydrogenase (Hyd-3); experiment: Whole-cell [NiFe] hydrogenase assay (benzyl viologen reduction); type: cell-based, Klebsiella pneumoniae; set-up: Benzyl viologen hydrogenase assay (activity): unit not given here
# Excerpt: We reasoned that disruption of Ni^2+ uptake and homeostasis should also perturb the activity of other Ni-dependent enzymes. To examine this possibility, we tested the effects of free AMA and Zn-AMA on Ni-dependent hydrogen metabolism in bacteria. […] K. pneumoniae produces a single [NiFe]-hydrogenase (Hyd-3) as part of the H2-evolving formate hydrogenlyase (FHL) complex and is encoded by the hyc operon (Fig S8)[21]. […] To measure [NiFe]-hydrogenase-catalyzed H2 […], benzyl viologen was used as an artificial electron acceptor, as previously described. Although Hyd-3 is involved in the evolution of H2, previous work in E. coli has shown that it is responsible for 90% of the hydrogen-dependent benzyl viologen reduction in crude extracts and whole-cell assays[41]–[44].
# The whole-cell hydrogenase activity in K. pneumoniae was based on a modified method described by Lacasse et al.[41] […] The cell suspension was diluted 1/100 in LB supplemented with 0.8% glucose, 10 mM MgCl2, and 10 mM potassium phosphate, pH 7.2. […] Following an 18-hour incubation, whole-cell [NiFe] hydrogenase activity was monitored by adding benzyl viologen (1 mg/mL) to each well, followed by continuous monitoring of the change in absorbance at 630 nm using a BioTek Synergy H1 microplate reader in an anaerobic glove box.
# [7] = K. pneumoniae treated with 200 μM
compound,measurement,setting,value
"N[C@@H](CN[C@@H](CN[C@@H](CC(=O)O)C(=O)O)C(=O)O)C(=O)O [AMA, aspergillomarasmine A]",cytotoxicity toward HEK293,"HEK293 cells; 48 h, up to 512 μg/mL (~1.4 mM)",no significant cytotoxicity
same,IC50 (HEK293 viability),"HEK293 cells; 48 h, highest tested 512 µg/mL (MG-132 62.5 µg/mL), Zn and Ni values of low confidence",Does no t fit to the mo del
same,HEK 293T cytotoxicity assay raw signal,HEK293 cells; AMA 0.5 μg/mL,625667 and 666020 and 709951
same,HEK 293T cytotoxicity assay raw signal,HEK293 cells; AMA 1 μg/mL,642619 and 585959 and 657816
same,HEK 293T cytotoxicity assay raw signal,HEK293 cells; AMA 2 μg/mL,663671 and 698910 and 700863
same,HEK 293T cytotoxicity assay raw signal,HEK293 cells; AMA 4 μg/mL,595054 and 606045 and 670753
same,HEK 293T cytotoxicity assay raw signal,HEK293 cells; AMA 8 μg/mL,579865 and 576275 and 764893
same,HEK 293T cytotoxicity assay raw signal,HEK293 cells; AMA 16 μg/mL,628738 and 611425 and 704710
same,HEK 293T cytotoxicity assay raw signal,HEK293 cells; AMA 32 μg/mL,627377 and 612979 and 683402
same,HEK 293T cytotoxicity assay raw signal,HEK293 cells; AMA 64 μg/mL,591894 and 576108 and 744283
same,HEK 293T cytotoxicity assay raw signal,HEK293 cells; AMA 128 μg/mL,558480 and 565965 and 608380
same,HEK 293T cytotoxicity assay raw signal,HEK293 cells; AMA 256 μg/mL,567074 and 538238 and 648309
same,HEK 293T cytotoxicity assay raw signal,HEK293 cells; AMA 512 μg/mL,571681 and 577586 and 600345
same,effect on intracellular Ni^2+ levels,"[1]; 200 μM, ICP-MS",reduced intracellular Ni^2+ levels
same,effect on intracellular Zn^2+ levels,"[1]; 200 μM, ICP-MS",without affecting Zn^2+ levels
same,ICP-MS cellular Ni,[1]; [7],2.92 µM and 2.63 µM
same,ICP-MS cellular Zn,[1]; [7],0.75 µM and 0.88 µM
same,Staphylococcus aureus urease-dependent pH change (pH),[2]; 0.19 μM,6.95 and 7.25
same,Staphylococcus aureus urease-dependent pH change (pH),[2]; 0.39 μM,6.96 and 7.10
same,Staphylococcus aureus urease-dependent pH change (pH),[2]; 0.78 μM,6.77 and 6.94
same,Staphylococcus aureus urease-dependent pH change (pH),[2]; 1.56 μM,6.69 and 6.68
same,Staphylococcus aureus urease-dependent pH change (pH),[2]; 3.12 μM,6.42 and 6.51
same,Staphylococcus aureus urease-dependent pH change (pH),[2]; 6.25 μM,6.40 and 6.45
same,Staphylococcus aureus urease-dependent pH change (pH),[2]; 12.5 μM,6.33 and 6.40
same,Staphylococcus aureus urease-dependent pH change (pH),[2]; 25 μM,6.33 and 6.38
same,Staphylococcus aureus urease-dependent pH change (pH),[2]; 50 μM,6.38
same,Staphylococcus aureus urease-dependent pH change (pH),[2]; 100 μM,6.31 and 6.37
same,Staphylococcus aureus urease-dependent pH change (pH),[2]; 200 μM,6.35 and 6.38
same,effect on urease activity,[2]; S. aureus,inhibited urease activity similarly
same,Specific activity (cell-free indophenol urease assay),urease; AMA 0.007813 mM,42.56 nmol/min/mg and 44.10 nmol/min/mg
same,Specific activity (cell-free indophenol urease assay),urease; AMA 0.015625 mM,40.68 nmol/min/mg and 41.88 nmol/min/mg
same,Specific activity (cell-free indophenol urease assay),urease; AMA 0.03125 mM,40.85 nmol/min/mg and 42.39 nmol/min/mg
same,Specific activity (cell-free indophenol urease assay),urease; AMA 0.0625 mM,40.85 nmol/min/mg
same,Specific activity (cell-free indophenol urease assay),urease; AMA 0.125 mM,39.49 nmol/min/mg and 40.51 nmol/min/mg
same,Specific activity (cell-free indophenol urease assay),urease; AMA 0.25 mM,37.95 nmol/min/mg and 38.29 nmol/min/mg
same,Specific activity (cell-free indophenol urease assay),urease; AMA 0.5 mM,35.56 nmol/min/mg and 36.75 nmol/min/mg
same,Specific activity (cell-free indophenol urease assay),urease; AMA 1 mM,35.04 nmol/min/mg and 35.73 nmol/min/mg
same,direct inhibition of urease,urease; cell-free extract,excluded the direct inhibition of urease
same,K. pneumoniae urease-dependent pH change (pH),[3]; 0.19 μM,8.15 and 8.19
same,K. pneumoniae urease-dependent pH change (pH),[3]; 0.39 μM,8.16 and 8.12
same,K. pneumoniae urease-dependent pH change (pH),[3]; 0.78 μM,8.08 and 8.03
same,K. pneumoniae urease-dependent pH change (pH),[3]; 1.56 μM,7.97 and 7.75
same,K. pneumoniae urease-dependent pH change (pH),[3]; 3.12 μM,7.86 and 7.57
same,K. pneumoniae urease-dependent pH change (pH),[3]; 6.25 μM,7.81 and 7.46
same,K. pneumoniae urease-dependent pH change (pH),[3]; 12.5 μM,7.78 and 7.33
same,K. pneumoniae urease-dependent pH change (pH),[3]; 25 μM,7.75 and 7.40
same,K. pneumoniae urease-dependent pH change (pH),[3]; 50 μM,7.87 and 7.54
same,K. pneumoniae urease-dependent pH change (pH),[3]; 100 μM,8.02 and 7.77
same,K. pneumoniae urease-dependent pH change (pH),[3]; 200 μM,8.03 and 8.04
same,effect on urease activity,[3]; K. pneumoniae,did not significantly affect urease activity
same,Growth of K. pneumoniae with urea as a sole nitrogen source (OD600),K. pneumoniae [4],1.19
same,Growth curve (culture density),K. pneumoniae [4]; 15.15 h,0.165 and 0.162
same,Growth curve (culture density),K. pneumoniae [4]; 16.15 h,0.186 and 0.183
same,Growth curve (culture density),K. pneumoniae [4]; 17.15 h,0.218 and 0.214
same,growth with urea as sole nitrogen source,K. pneumoniae [4]; Chelex-treated nitrogen-limited medium,not viable
same,bacterial viability (spot dilutions),S. aureus,not lethal to bacteria
same,bacterial viability (spot dilutions),K. pneumoniae [5],do not affect bacterial viability
same,Benzyl viologen hydrogenase assay (activity),[6]; 1.5625 μM,10.01 and 8.89
same,Benzyl viologen hydrogenase assay (activity),[6]; 3.125 μM,10.26 and 7.90
same,Benzyl viologen hydrogenase assay (activity),[6]; 6.25 μM,10.55 and 8.44
same,Benzyl viologen hydrogenase assay (activity),[6]; 12.5 μM,10.31 and 8.59
same,Benzyl viologen hydrogenase assay (activity),[6]; 25 μM,10.36 and 8.93
same,Benzyl viologen hydrogenase assay (activity),[6]; 50 μM,9.47 and 8.79
same,Benzyl viologen hydrogenase assay (activity),[6]; 100 μM,9.67 and 7.85
same,Benzyl viologen hydrogenase assay (activity),[6]; 200 μM,9.18 and 9.08
same,Benzyl viologen hydrogenase assay (activity),[6]; 400 μM,9.38 and 7.95
same,effect on [NiFe]-hydrogenase activity,"[6]; LB-glucose, anaerobic, whole cell",no impact on [NiFe]-hydrogenase activity
